The values that follow come from US9738878B2, “HIV-1 integrase derived peptides and compositions” (priority 2008, dated 2017).

No end group written: not given here.

The target of data set [1] is T1, Rev 53-67 (Human immunodeficiency virus type 1 group M subtype B, UniProt P04618).
T1 construct: biotinylated-BSA-Rev 13-23 or Rev 53-67 conjugates
The data set is described as follows: ELISA-based binding assay, biotinylated-BSA-Rev 53-67 conjugate on peptide-coated plates. Also on record: species or system HIV-1. As to the method: (§1) Protein-peptide binding was estimated using an ELISA-based binding assay as described previously (Rosenbluh et al., 2006, Anal Biochem 352, 157-168). Briefly, Maxisorp plates (Nunc) were incubated at room temperature for 2 h with 200 μl of 10 μg/ml synthetic peptide in carbonate buffer. After incubation, the solution was removed, the plates were washed three times with PBS, and 200 μl of 10% BSA in PBS (w/v) was added for 2 h at room temperature. […] Following three washes with PBS, the concentration of bound biotinylated molecules was estimated after the addition of streptavidin-horseradish peroxidase (HRP) conjugate (Sigma), as described previously (Melchior et al., 1993, J Cell Biol 123, 1649-1659). The concentration of bound protein molecules was estimated after the addition of anti-GFP mouse antibody (Santa Cruz) which then was interacted with rabbit anti-mouse IgG antibody conjugated to HRP. The enzymatic activity of HRP was estimated by monitoring the product's optical density (OD) at 490 nm using an ELISA plate reader (Tecan Sunrise). Each measurement was performed at least in duplicate.
(§2) Selection of peptide sequences that interact with the Rev protein, Rev-derived peptides, and the IN itself was made by screening of an N peptide library (NIH AIDS Research and Reference Reagent Program, Division of AIDS, NIAID, NIH: HIV-1 Consensus B Pol (15-mer) peptides—Complete Set from DAIDS, NIAID), using an ELISA-based assay system.
(§3) FIG. 1: 1A—Rev-GFP or GFP alone were incubated in ELISA plates coated with either INr-1 (♦, ⋄, respectively), INr-2 (▪, □, respectively) or INS (▴, Δ, respectively) and binding was determined as described above. 1B—The IN protein was first bound to the ELISA plate and then incubated with Rev-GFP to obtain a Rev-IN complex. The complex was then incubated with either one of the INr peptides or the INS peptide at the designated Rev-GFP:peptide ratio. Wells were then washed and the amount of bound Rev-GFP was determined by mouse anti-GFP antibody and secondary rabbit anti-mouse HRP-conjugated antibody. […]
(An ELISA detects its analyte on a solid surface through an enzyme-linked reagent.)

The target of data set [2] is T2, IN (Human immunodeficiency virus type 1 group M subtype B, UniProt P12497).
T2 construct: The histidine-tagged IN expression vector was a generous gift from Dr. A. Engelman; histidine tag; made in house
In words: IN enzymatic activity assay. Format: biochemical, HIV-1. The following applies: for integrase activity inhibited by Rev-derived peptide, restoration: molar ratio 1:10 (Rev peptide:INr peptide). As to the method: The IN enzymatic activity assay was performed using a previously described assay system (Craigie et al., 1991, Nucleic Acids Res 19, 2729-2734, Hwang et al., 2000, Nucleic Acids Res 28, 4884-4892). Briefly, the oligonucleotide substrate consisted of one oligo (5′-[…]-3′) labeled with biotin at the 3′ end and the other oligo (5′-[…]-3′) labeled with digoxigenin at the 5′ end. When inhibition was studied, the IN was preincubated with the peptide or protein for 15 min prior to addition of the DNA substrate.
FIG. 2 (A) Rev-GFP (dark green) or GFP (turquoise) were incubated at different molar ratios with IN (390 nM) and the IN enzymatic activity was determined as described above. (B) Rev-GFP was preincubated with the indicated INS peptide at a molar ratio of 5:1 (peptide:Rev-GFP) and the resultant mixture was added to a solution containing IN to give a molar ratio of 1:200 and 1:400 (IN:Rev-GFP). Following an incubation period, IN activity was estimated as described above. (C) Same as (B) but with the INrs peptides.
FIG. 3 A-C IN (390 nM) was incubated with 50 μM of the Rev-derived peptides (1:300 IN:Rev-derived peptide, Rev13-23 or Rev 53-67) and then the INS peptide was added at different molar ratios ranging from 10:1 to 1:10 (Rev peptide:INS peptide) (A) IN (390 nM) was incubated with 50 μM of the Rev-derived peptides (1:300 IN:Rev-derived peptide), (Rev13-23 (B) and Rev 53-67 (C)) and then the INr peptides were added at different molar ratios ranging from 10:1 to 1:10 (Rev peptide:INr peptide).

Data set [3] deals with T3, Rev 13-23 (Human immunodeficiency virus type 1 group M subtype B, UniProt P04618).
T3 construct: biotinylated-BSA-Rev 13-23 or Rev 53-67 conjugates
In words: ELISA-based binding assay, biotinylated-BSA-Rev 13-23 conjugate on peptide-coated plates. Also on record: species or system HIV-1. Here is the method:
as §1, §2, §3

Data set [4] concerns Rev-GFP. The data set is described as follows: ELISA-based binding assay, Rev-GFP on peptide-coated plates. Further details: species or system HIV-1. The following applies: screen of IN peptide library. As to the method:
as §1, §2, §3

The test system of data set [5] is HIV-1 infected lymphocyte cells. In words: Lysis of HIV-1 infected cells after one cycle of infection, MTT. Particulars: 62.5-150 μM, ΔENV/VSV-G HIV-1 MOI 10, MTT 48 h post infection.
Data set [6] concerns Rev-IN complex. The following applies: peptide added to preformed complex.
The test system of data set [7] is HIV-1.
Experimental: Quantitative titration of HIV-1 was carried out using the MAGI assay, as described by Kimpton and Emerman (J Virol 1992, 66, 2232-2239). […] Two days post-infection (PI), cultured cells were fixed and ƒl-galactosidase was estimated as described above. Blue cells were counted under a light microscope at 200× magnification.
The concentration of azidothymidine (AZT) used was 2 μM.
In data set [8] the target is T2, IN. In words: ELISA-based binding assay, IN protein. Also on record: species or system HIV-1. As to the method:
Each measurement was performed at least in duplicate.
Selection of peptide sequences that interact with the Rev protein, Rev-derived peptides, and the IN itself was made by screening of an N peptide library (NIH AIDS Research and Reference Reagent Program, Division of AIDS, NIAID, NIH: HIV-1 Consensus B Pol (15-mer) peptides—Complete Set from DAIDS, NIAID), using an ELISA-based assay system. […] This observation further confirmed that the sequence of the NS and INrs peptides within the N protein mediate the interaction with the Rev protein. The NS peptide interacted with both Rev 13-23 and Rev 53-67 peptides while Nr-1 and Nr-2 interacted with the Rev 53-67 and Rev 13-23 peptides respectively (FIG. 1D and Table 1). […] This was inferred from experiments showing that biotinylated-BSA-Rev 13-23 or Rev 53-67 conjugates were able to interact with NS or INrs peptides-coated plates (FIGS. 1C and 1D).

Data set [9] concerns HeLa cells. The data set is described as follows: Cell-penetration experiments, fluorescein-labeled peptides, confocal microscopy. Format: cell-based. The following applies: fluorescein-labeled peptide 10 μM. As to the method: Fluorescein-labeled peptides at a final concentration of 10 μM in PBS were incubated with HeLa cells for 1 h at 37° C.
The cells were then washed three times with PBS and visualized by a confocal microscope. […] (C) same as (B) but in H9 lymphocytes

Data set [10] relates to HeLa TZM-b1 cells. The data set is described as follows: Cell viability, MTT assay. Format: cell-based. Particulars: up to about 62 μM.
Data set [11] can be described thus: Survival of HIV-1 infected and uninfected Hela cells. Format: cell-based. Particulars: human, uninfected HeLa cells, read-out: intact viable uninfected Hela cells. Here is the method:
FIG. 7 Percentage of viable infected and uninfected Hela cells normalized every two days to the number of cells in the non treated non infected cells sample. Cells were infected with WT HIV-1 at MOI of 0.01 and the treated cells were added 12.5 μM of INS.

The subject of data set [12] is HIV-1. The following applies: H9 and Sup-T1 cells, peptide 12.5 μM.
Experimental: Cultured lymphocytes (1×10^5) were centrifuged for 5 min at 2000 rpm and after removal of the supernatant, the cells were resuspended in 0.2 to 0.5 ml of RPMI 1640 medium containing virus at a multiplicity of infection (MOI) of 0.01, 0.1 and 5. Following absorption for 2 h at 37° C., the cells were washed to remove unbound virus and then incubated at the same temperature for an additional 1 to 8 days.
Lymphoid cells were incubated with the indicated peptides for 2 h and following infection with wild-type HIV-1 at a MOI of 0.01 (as described above), the cells were incubated for 8 days, or 48 h at a MOI of 1. The amount of p24 protein was estimated in the cell medium every 2 days exactly as described previously.
The amount of viral P24 (A and B) and virus titer (C and D) were determined every 2 days by ELISA and MAGI assay (Kimpton 1992, J Virol 66, 2232-2239), respectively. The concentration of azidothymidine (AZT) used was 2 μM.
The test system of data set [13] is HIV-1 DNA integration. In words: Copy numbers of HIV-1 DNA integrated into cellular genome, real-time PCR. Format: cell-based. The following applies: H9 cells, 24 hours post infection, single cycle of infection, Δenv/VSV-G HIV-1. As to the method:
During the second-round PCR, the first-round PCR product could be specifically amplified by using the tag-specific primer (tag-F 5′-[…]-3′) and the LTR primer (LTR-R 5′-[…]-3′) designed by PrimerExpress (Applied Biosystems) using default settings. The second-round PCR was performed on 1/25th of the first-round PCR product in a mixture containing 300 nM of each primer, 12.5 μl of 2λ SYBR Green master mixture (Applied Biosystems) at a final volume of 25 μl, run on an ABI PRIZM 7700 (Applied Biosystems).
For generation a standard calibration curve, the SVC21 plasmid containing the full-length HIV-1HXB2 viral DNA was used as a template. In the first-round PCR, the LTR-TAG-F and LTR-R primers were used and the second-round PCR was performed using the tag-F and LTR-R primers. The standard linear curve was in the range of 5 ng to 0.25 fg (R=0.99). DNA samples were assayed with quadruplets of each sample. The cell equivalents in the sample DNA were calculated based on amplification of the 18S gene by real-time PCR as described in (Field et al, 2002, Biochem J 368, 855-864).
. (B) H9 T-lymphoid cells were incubated with the indicated peptides (12.5 μM) or AZT (2 μM) and following HIV-1 infection, the integrated viral DNA/cell was assessed by real-time PCR following a single cycle of infection at a MOI of 5 of Δenv/VSV-G HIV-1.

Regarding WGSNFTSTTVKA [INr-2], the “interaction with Rev 53-67 peptide” value in data set [1] is “not with Rev 53-67”. For the same sequence, the “abrogation of inhibitory effect of Rev 13-23 peptide on IN activity” value in data set [2] (IN 390 nM, Rev peptide 50 μM) is given as “abrogated the inhibitory effect”. The “integrase activity inhibited by Rev-derived peptide, restoration” value in data set [2] is “fully restored”. Further, in data set [3], the “interaction with Rev 13-23 peptide” value is “interacted”. Besides, the “interaction with Rev-GFP” value in data set [4] is recorded as “specifically interacting”.
Take WTAVQMAVFIHNFKRK [INS]: in data set [5], the “cell death after one cycle of infection” value is given as “induce killing of only infected lymphocyte cells”. Further, the “release of bound Rev-GFP from the complex formed between IN and Rev-GFP” value in data set [6] is “induces the release of the bound Rev-GFP”. Moreover, the “appearance of infectious viral particles” value in [7] was “stimulation”. Further, the “interaction with Rev 53-67 peptide” value in data set [1] is “interacted”. In addition, in data set [8], the “interaction with the IN protein itself” value is reported as “interact”. Further, the “enzymatic activity of HIV-1 IN” value in data set [2] (in the absence of the inhibitory Rev peptide) is “significantly stimulated”. For the same sequence, in [2] (molar ratio Rev:INS peptide 1:5), the “integrase activity inhibited by Rev-derived peptides, restoration” value is “fully restored”. The “integrase activity in presence of Rev-derived peptides” value in [2] (molar ratio Rev:INS peptide 1:10) is recorded as “stimulate the IN activity”. In data set [2] (peptide:Rev-GFP 5:1, IN:Rev-GFP 1:200 and 1:400), the “abrogation of Rev-GFP inhibition of IN activity” value was “abrogated the inhibitory activities of Rev-GFP”. In addition, in [9], the cell penetration result was “cell-permeable”. For the same sequence, in data set [10], the cell toxicity entry is given as “non-toxic”. Moreover, the viability at 12.5 µM in data set [11] is around 100%. Further, the “interaction with Rev 13-23 peptide” value in data set [3] was “interacted”. In addition, the “interaction with Rev-GFP” value in data set [4] is recorded as “specifically interacting”. Moreover, the “appearance of viral p24 antigen” value in data set [12] is recorded as “Stimulation”. Moreover, the “stimulation of integration per cell” value in data set [13] is 2- to 5 fold.
For WTHLEGKIILVAVHVA [INr-1], the “interaction with Rev 53-67 peptide” value in [1] is “interacted”. Also, in data set [2] (IN 390 nM, Rev peptide 50 μM), the “abrogation of inhibitory effect of Rev 53-67 peptide on IN activity” value was “abrogated the inhibitory effect”. The “integrase activity inhibited by Rev-derived peptide, restoration” value in data set [2] is recorded as “fully restored”. Besides, the “interaction with Rev 13-23 peptide” value in data set [3] is on record as “not with the Rev 13-23 peptide”. Besides, the “interaction with Rev-GFP” value in [4] is on record as “specifically interacting”.
